Entries after “also recorded” stand apart in the source; their conditions may differ.
Assays:
[1] = target: carbonmonoxyhemoglobin (COHb) (Homo sapiens, UniProt P68871+P69905); assay: Reaction of FMP with carbonmonoxyhemoglobin, conversion by anion exchange chromatography; assay type: biochemical
Method: The effect of pH, type of buffer, and ligand state of the cross-linked hemoglobin was examined for the reaction of fumaryl bis(methyl phosphate) (FMP) with hemoglobin.
ethanesulphonic acid]at pH 7.5, 35°, for 2 hours. Over the range of pH from 6.8 to 7.5, the greatest reaction between COHb and FMP was obtained at the pH of 7.2 in bisTris. The reaction at pH 7.2, . […] A second peak of reacted material observed by anion exchange chromatography increased over 3 hours from 14% at 10 minutes to about 30% by 3 hours.

[2] = Solution stability (hydrolysis followed by 31P NMR) of bis(methyl acyl phosphates) in tris-HCl buffer; assay type: physicochemical; conditions: 0.100M tris-HCl buffer, pH 7.4, 37° C.; for half-life: 0.1 m tris-hcl buffer, 31P NMR
Method: The solution stability of the bis(methyl acyl phosphates) was examined. The hydrolysis of fumaryl bis(sodium methyl phosphate), stilbene 3,3'dicarboxylic acid bis(sodium methyl phosphate) and stilbene 4,4'dicarboxylic acid bis(sodium methyl phosphate) in 0.100M tris-HCL buffer, pH 7.4, 37° C., were followed by integrating signals for the reactant and the phosphorus-containing product, methyl phosphate, in the ^31 P NMR spectrum. Production of methyl phosphate was observed as an indication of hydrolysis or of acylation of the buffer. […] The half life of the 3,3'stilbene derivative, was 100 hours. […] This is in agreement with earlier reports of the reactivity of acyl phosphate esters (Disabato, G.; Jencks, W. P., J. Am. Chem. Soc. 1961, 83, 4393, 4400).

[3] = tested on: human hemoglobin; assay: Cross-linking site of the reaction with hemoglobin; assay type: biochemical
Source text: Structural characterization of the major and some minor modified hemoglobins that result form reacting deoxyHb and COHb with FMP were made by isolating single hemoglobin components wherever possible. The initial separation was made on a preparative size Synchropak AX300 anion exchange column. Further purification was obtained by rechromatography of anion exchange zones containing mixtures of hemoglobins on a preparative size Synchropak CM300 cation exchange column. Zones from cation exchange rechromatography were then subjected to globin chain separation using Vydak C-4 large pore reverse phase columns. In some cases, this was sufficient for identification of the unmodified globin chains. In most cases the globin chain was isolated, treated by oxidations or aminoethylation to stabilize the zysteinyl residues, hydrolyzed with trypsin and glu-C proteonase and the resultant peptides were separated and analyzed for amino acid composition. Table II lists the components isolated and the structural modifications identified for the FMP treated hemoglobin.
The number, chromatographic elution positions, and amounts of products of hemoglobin reacted with FMP varies with the ligand state of the hemoglobin and with the presence or absence of 2,3-DPG (2,3, diphosphoglycerate). FIG. 1 is an artion exchange HPLC chromatogram of the reaction mixture after treatment of deoxyhemoglobin with FMP. […]

[4] = tested on: human hemoglobin; assay: Inter-subunit cross-linking of hemoglobin by SDS-polyacrylamide gel electrophoresis; assay type: biochemical; conditions: 0.3 mM hemoglobin, pH 7.4, 37° C., four hours
Method: Solutions (2 mL) of 4,4'stilbene dicarboxylic acid bis(methyl phosphate) at concentrations of 0.3 mM, 3.0 mM, 30 mM, and 300 mM were prepared in 0.100M tris-HCL buffer pH 7.4. A control solution containing only the buffer was prepared. To each of these freshly prepared solutions, 40 mg of human hemoglobin (Sigma Chemical Company) was added so that the resulting solution was 0.3 mM in hemoglobin. The reaction mixtures were than stirred vigorously and incubated at 37° C. After four hours the solutions were dialyzed against 0.100M sodium phosphate buffer, pH 7.0, for 20 hours at 4° C. to remove the unreacted acyl phosphates. The samples were then lyophilized and analyzed by SDS-polyacrylamide gel electrophoresis to assess the extent of intersubunit cross-linking (Weber, K; Osborn, M.; J. Biol. Chem. 1969, 244, 4406). Prior to electrophoresis, the hemoglobin samples, cross-linked bovine hemoglobin standard (Sigma Dalton Mark VII-L doubly crystallized, dialyzed, lyophilized), and molecular weight standards were denatured by boiling for 15 min. in 0.11M sodium phosphate buffer, pH 7.0, which contained 1% sodium dodecyl sulfate, 1% 2-mercaptoethanol, 36% urea, and 0.015% bromphenol blue. The final protein concentrations were 2 mg/mL and 10 to 20 μL aliquots were loaded on the gel. The process was conducted using a Bio-Rad Mini-Protean II dual slab cell apparatus. The extent of cross-linking of the hemoglobin could be estimated by visual comparison of the resolved electrophoretic bands after fixation followed by staining with Coomassie Brilliant Blue R.
The above procedure was repeated with solutions of fumaryl bis(methyl phosphate) at concentrations of 0.3 mM, 3.0 mM and 30 mM; 3,3'stilbene dicarboxylic acid bis(methyl phosphate) at a concentration of 30 mM and methyl acetyl phosphate at a concentration of 0.6M.

Sequence of carbonmonoxyhemoglobin (COHb) (P69905 2-142 limits assumed): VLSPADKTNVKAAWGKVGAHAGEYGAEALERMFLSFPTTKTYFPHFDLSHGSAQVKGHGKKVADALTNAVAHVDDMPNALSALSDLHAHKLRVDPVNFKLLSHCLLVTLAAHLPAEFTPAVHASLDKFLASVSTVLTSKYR
Sequence of carbonmonoxyhemoglobin (COHb) (P68871 2-147 limits assumed): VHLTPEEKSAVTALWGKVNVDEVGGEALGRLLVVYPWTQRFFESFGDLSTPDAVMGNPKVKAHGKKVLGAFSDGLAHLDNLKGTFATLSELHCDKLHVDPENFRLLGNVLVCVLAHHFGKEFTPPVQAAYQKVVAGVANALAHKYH

COP(=O)(O)OC(=O)/C=C/C(=O)OP(=O)(O)OC [fumaryl bis(methyl phosphate), Fumaryl bis(sodium methyl phosphate)]
conversion of the hemoglobin to fumaryl derivatives ([1]; 1 mM COHb, 2 mM FMP, pH 7.2, 35°, 2 hours): about 75% | second peak of reacted material ([1]; 1 mM COHb, 2 mM FMP, pH 7.2, 35°, at 10 minutes): 14% | major modified component, percent of total hemoglobin ([1]; 1 mM COHb, 2 mM FMP, pH 7.2, 35°, by 10 minutes): approximately 35% | second peak of reacted material ([1]; 1 mM COHb, 2 mM FMP, pH 7.2, 35°, by 3 hours): about 30% | effect of buffer on amounts or varieties of reaction products ([1]; COHb, bisTris compared to HEPES, pH 7.5, 35°, 2 hours): No significant differences | pH of greatest reaction between COHb and FMP ([1]; pH range 6.8 to 7.5, bisTris): 7.2 | half-life [2]: 36 h | cross-links formed in hemoglobin ([3]; absence of 2,3-diphosphoglycerate): cross-linked between β subunits (val-1 to lys-82) and between the same residues in a single β subunit as well as a cross-link between α subunits between lys-99 in each subunit; also recorded: cross-linked between β subunits (val-1 to lys-82) and between the same residues in a single β subunit as well as crosslinked between α subunits between lys-99 in each subunit | cross-linking site of reaction ([3]; human hemoglobin): the highly cationic site which binds 2,3-diphosphoglycerate | species produced by reaction with hemoglobin (SDS gel electrophoresis) [4]: dimeric and tetrameric species

COP(=O)(O)OC(=O)c1ccc(/C=C/c2ccc(C(=O)OP(=O)(O)OC)cc2)cc1 [Stilbene 4,4'-dicarboxylic acid bis(sodiummethyl phosphate)]
change observed in the 31P NMR spectrum ([2]; followed for nine hours): no change observed in the spectrum | species produced by reaction with hemoglobin (SDS gel electrophoresis) [4]: dimeric and tetrameric species

COP(=O)(O)OC(=O)c1cccc(/C=C/c2cccc(C(=O)OP(=O)(O)OC)c2)c1 [Stilbene 3,3'-dicarboxylic acid bis(sodiummethyl phosphate)]
half-life [2]: 100 h | species produced by reaction with hemoglobin (SDS gel electrophoresis) [4]: dimeric and tetrameric species

O=C(O)c1cccc(C=Cc2cccc(C(=O)O)c2)c1 [stilbene 3,3'-dicarboxylic acid, Stilbene 3,3'-dicarboxylic acid, reference compound]
species produced by reaction with hemoglobin (SDS gel electrophoresis) [4]: monomeric

Source: patent publication US5334707A, “Use of acyl phosphate esters in the modification of hemoglobin” (priority 1992, dated 1994)
